The test deals with ferricytochrome C. Put plainly: Control experiments: direct reduction of ferricytochrome C by the product itself. It counts as biochemical. The note with it: effect not quantifiable. From the text: This effect not being quantifiable, no conclusion can consequently be drawn on a possible inhibiting effect of these products on the production of the superoxide anion by the activated PMNs.

Turning to `O=c1ccc2cc(O[C@@H]3O[C@H](CO)[C@@H](O)[C@H](O)[C@H]3O)c(O)cc2o1` [esculoside, reference compound], the “Direct reduction of ferricytochrome C” value is “powerful reducers of ferricytochrome C”.
